Results taken from publication PMC7355955, “Validation of Pharmacological Protocols for Targeted Inhibition of Canalicular MRP2 Activity in Hepatocytes Using [^99mTc]mebrofenin Imaging in Rats” (Pharmaceutics, 2020).
Like-named read-outs stand apart in the source and are kept apart here.

Columns and labels:
human MRP2 = human MRP2 (Homo sapiens, UniProt Q92887); test: cell-based
Procedure: Stably transfected MDCK-II-MRP2 cells overexpressing human MRP2 were a kind gift from A. Schinkel ([…], The Netherlands). Cells were cultured in a controlled atmosphere at 37 °C, 5% CO2. The culture medium was composed of DMEM Glutamax (Dulbecco’s Modified Eagle Medium, 4.5 g/L D-glucose, pyruvate) supplemented with 10% fetal bovine serum and 1% antibiotics (penicillin and streptomycin 5000 U/mL). MRP2-mediated transport was assessed using the calcein-AM assay. Cells were seeded in 24-well plates (30,000 cells per well) in 500 μL of culture medium. […] After 30 min at 37 °C, the incubation buffer was removed and cell monolayers were rapidly washed with 300 μL of ice-cold buffer (Dulbecco’s phosphate buffered saline + CaCl2 + MgCl2). Cells were then lysed by 10 min of incubation with 500 μL of NaOH (10 mM). […] For each inhibitor, uptake data were normalized to describe the extent of inhibition from 0 to maximal (100%) inhibition.

rats = conditions: rat, in vivo
[1] = system: hepatic OATP and MRP2 activity; conditions: rat; lowest doses: DTZ 10 mg/kg s.c., CsA 0.01 mg/kg i.v.
Procedure: [^99mTc]mebrofenin scintigraphy was performed using a clinical SPECT-CT camera (Symbia®, Siemens, Knoxville, TN, USA) with a Low Energy High Resolution (LEHR) collimator. In each session, 3 rats were placed in a row on the scanner bed and catheters were inserted in the caudal vein. Experiments were performed for control conditions or after injection of the different transporter inhibitors. RIF (40 mg/kg intravenously, i.v.) was injected immediately before [^99mTc]mebrofenin as previously described [33]. […] Rats were injected with [^99mTc]mebrofenin (39 ± 4 MBq, i.v.) followed by dynamic planar acquisitions. Acquisitions were terminated by a X-ray CT scan.
Images were analyzed with PMOD® software (version 3.9, PMOD Technologies LLC). Regions of interest (ROI) were manually drawn on the liver, intestine, heart (= image-derived blood curve) and urinary bladder. Corresponding TACs were generated by plotting the mean radioactivity amount in each ROI normalized to the injected dose in each animal (cps/MBq) versus time.

[2] = system: hepatic OATP and MRP2 activity; parameters: method as in PMID 23440558; conditions: cited from earlier work
[3] = mice, lowest tested dose 12.5 mg/kg i.v. followed by 3.12 mg/kg intraperitoneal

Chain of human MRP2 (Q92887 whole entry): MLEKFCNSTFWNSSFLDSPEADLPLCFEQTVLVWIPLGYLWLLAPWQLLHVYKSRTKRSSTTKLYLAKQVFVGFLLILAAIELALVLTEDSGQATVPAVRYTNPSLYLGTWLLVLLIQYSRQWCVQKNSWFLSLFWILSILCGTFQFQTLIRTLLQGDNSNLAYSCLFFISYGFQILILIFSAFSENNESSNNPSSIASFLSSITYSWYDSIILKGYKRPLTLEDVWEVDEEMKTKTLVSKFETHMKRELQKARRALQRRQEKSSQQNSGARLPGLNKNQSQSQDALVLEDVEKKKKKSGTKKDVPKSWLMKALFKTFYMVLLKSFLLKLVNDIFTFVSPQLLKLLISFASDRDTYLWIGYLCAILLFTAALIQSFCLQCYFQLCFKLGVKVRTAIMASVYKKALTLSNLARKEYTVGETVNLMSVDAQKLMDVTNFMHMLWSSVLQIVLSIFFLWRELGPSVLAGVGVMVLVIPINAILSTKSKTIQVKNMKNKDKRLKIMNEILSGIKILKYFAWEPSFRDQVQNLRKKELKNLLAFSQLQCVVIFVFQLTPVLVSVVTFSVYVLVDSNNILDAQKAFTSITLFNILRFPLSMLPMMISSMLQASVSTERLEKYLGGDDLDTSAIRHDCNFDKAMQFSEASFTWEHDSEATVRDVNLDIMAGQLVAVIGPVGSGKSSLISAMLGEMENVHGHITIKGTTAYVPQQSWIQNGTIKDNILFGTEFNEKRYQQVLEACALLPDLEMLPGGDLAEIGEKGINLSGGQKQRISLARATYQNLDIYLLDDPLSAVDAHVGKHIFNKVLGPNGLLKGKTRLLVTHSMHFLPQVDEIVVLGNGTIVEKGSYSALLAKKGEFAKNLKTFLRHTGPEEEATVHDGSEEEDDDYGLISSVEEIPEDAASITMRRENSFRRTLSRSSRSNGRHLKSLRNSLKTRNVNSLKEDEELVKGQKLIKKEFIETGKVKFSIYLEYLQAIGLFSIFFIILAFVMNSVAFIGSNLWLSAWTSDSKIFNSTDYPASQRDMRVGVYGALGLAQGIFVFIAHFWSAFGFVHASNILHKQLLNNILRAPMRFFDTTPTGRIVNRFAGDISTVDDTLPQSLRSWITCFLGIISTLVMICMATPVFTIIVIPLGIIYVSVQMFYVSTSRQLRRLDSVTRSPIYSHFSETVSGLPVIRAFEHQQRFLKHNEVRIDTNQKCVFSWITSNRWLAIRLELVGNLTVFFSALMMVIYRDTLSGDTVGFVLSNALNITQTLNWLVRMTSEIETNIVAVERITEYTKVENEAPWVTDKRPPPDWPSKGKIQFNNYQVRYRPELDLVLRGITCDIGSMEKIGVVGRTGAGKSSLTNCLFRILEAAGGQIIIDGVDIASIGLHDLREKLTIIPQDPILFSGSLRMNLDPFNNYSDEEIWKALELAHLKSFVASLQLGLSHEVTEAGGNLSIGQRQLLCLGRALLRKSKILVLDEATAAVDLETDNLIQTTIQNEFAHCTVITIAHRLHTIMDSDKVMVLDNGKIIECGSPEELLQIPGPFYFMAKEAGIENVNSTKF

concentration achieving full MRP2 inhibition (human MRP2; MDCK-II-MRP2 cells, calcein-AM assay) [µM]	Compound	IC50 (human MRP2) [µM]	tolerance of i.v. doses higher than 3 mg/kg (rats)	outcome of intravenous injection (rats; iv, 40 mg/kg)	effect on initial liver uptake (AUCRliver/blood 0–3 min) of [99mTc]mebrofenin [1]	change in AUCRbile/liver of [99mTc]mebrofenin (biliary excretion) ([2]; mice, higher doses of RIF) [%]	change in AUCRbile/liver of [99mTc]mebrofenin (biliary excretion) [2, 3] [%]	effect on liver uptake of [99mTc]mebrofenin [2, 3]	fold decrease in AUCRbile/liver with MRP2-deficiency ([2]; MRP2-deficient mice)
	COc1ccc([C@@H]2Sc3ccccc3N(CCN(C)C)C(=O)[C@@H]2OC(C)=O)cc1 [DTZ, Diltiazem]	4.4	poor tolerance	lethal	did not affect				
> 500	CO[C@H]1/C=C/O[C@@]2(C)Oc3c(C)c(O)c4c(O)c(c(/C=N/N5CCN(C)CC5)c(O)c4c3C2=O)NC(=O)/C(C)=C\C=C\[C@H](C)[C@H](O)[C@@H](C)[C@@H](O)[C@@H](C)[C@H](OC(C)=O)[C@@H]1C [RIF, rifampicin]	210				−94	−25	did not impact	
	Cc1cc(C)c(NC(=O)CN(CC(=O)[O-])CC(=O)[O-])c(C)c1Br.Cc1cc(C)c(NC(=O)CN(CC(=O)[O-])CC(=O)[O-])c(C)c1Br.[99Tc+4] [[^99mTc]mebrofenin]								~ 10 fold
